According to ChEMBL document CHEMBL2157886, “Synthesis and evaluation of ¹⁸F-labeled styryltriazole and resveratrol derivatives for β-amyloid plaque imaging” (J Med Chem, 2012):

How the values were obtained:
[1] = Binding affinity to amyloid beta (1-42) aggregates
[2] = test system: Brain; assay: Ratio of drug uptake in BALB/c mouse brain after 5 mins to 30 mins; type: ADME, tissue-based; settings: in vivo
[3] = Displacement of [125I]TZDM from amyloid beta (1 to 42) aggregates after 3 hrs by gamma counting
[4] = Octanol-water partition coefficient, log P of the compound; type: physicochemical
[5] = test system: Blood; assay: Drug uptake in ICR mouse blood at 1.11 MBq, iv after 2 mins postinjection; type: ADME, organism-based; settings: in vivo
[6] = test system: Blood; assay: Drug uptake in ICR mouse blood at 1.11 MBq, iv after 30 mins postinjection; type: ADME, organism-based; settings: in vivo, 0.5 h
[7] = test system: Blood; assay: Drug uptake in ICR mouse blood at 1.11 MBq, iv after 60 mins postinjection; type: ADME, organism-based; settings: in vivo, 1 h
[8] = test system: Blood; assay: Drug uptake in ICR mouse blood at 1.11 MBq, iv after 120 mins postinjection; type: ADME, organism-based; settings: in vivo, 2 h
[9] = test system: Heart; assay: Drug uptake in ICR mouse heart at 1.11 MBq, iv after 2 mins postinjection; type: ADME, organism-based; settings: in vivo
[10] = test system: Heart; assay: Drug uptake in ICR mouse heart at 1.11 MBq, iv after 30 mins postinjection; type: ADME, organism-based; settings: in vivo, 0.5 h
[11] = test system: Heart; assay: Drug uptake in ICR mouse heart at 1.11 MBq, iv after 60 mins postinjection; type: ADME, organism-based; settings: in vivo, 1 h
[12] = test system: Heart; assay: Drug uptake in ICR mouse heart at 1.11 MBq, iv after 120 mins postinjection; type: ADME, organism-based; settings: in vivo, 2 h
[13] = test system: Lung; assay: Drug uptake in ICR mouse lung at 1.11 MBq, iv after 2 mins postinjection; type: ADME, organism-based; settings: in vivo
[14] = test system: Lung; assay: Drug uptake in ICR mouse lung at 1.11 MBq, iv after 30 mins postinjection; type: ADME, organism-based; settings: in vivo, 0.5 h
[15] = test system: Lung; assay: Drug uptake in ICR mouse lung at 1.11 MBq, iv after 60 mins postinjection; type: ADME, organism-based; settings: in vivo, 1 h
[16] = test system: Lung; assay: Drug uptake in ICR mouse lung at 1.11 MBq, iv after 120 mins postinjection; type: ADME, organism-based; settings: in vivo, 2 h
[17] = test system: Liver; assay: Drug uptake in ICR mouse liver at 1.11 MBq, iv after 2 mins postinjection; type: ADME, organism-based; settings: in vivo
[18] = test system: Liver; assay: Drug uptake in ICR mouse liver at 1.11 MBq, iv after 30 mins postinjection; type: ADME, organism-based; settings: in vivo, 0.5 h
[19] = test system: Liver; assay: Drug uptake in ICR mouse liver at 1.11 MBq, iv after 60 mins postinjection; type: ADME, organism-based; settings: in vivo, 1 h
[20] = test system: Liver; assay: Drug uptake in ICR mouse liver at 1.11 MBq, iv after 120 mins postinjection; type: ADME, organism-based; settings: in vivo, 2 h
[21] = test system: Spleen; assay: Drug uptake in ICR mouse spleen at 1.11 MBq, iv after 2 mins postinjection; type: ADME, organism-based; settings: in vivo
[22] = test system: Spleen; assay: Drug uptake in ICR mouse spleen at 1.11 MBq, iv after 30 mins postinjection; type: ADME, organism-based; settings: in vivo, 0.5 h
[23] = test system: Spleen; assay: Drug uptake in ICR mouse spleen at 1.11 MBq, iv after 60 mins postinjection; type: ADME, organism-based; settings: in vivo, 1 h
[24] = test system: Spleen; assay: Drug uptake in ICR mouse spleen at 1.11 MBq, iv after 120 mins postinjection; type: ADME, organism-based; settings: in vivo, 2 h
[25] = test system: Kidney; assay: Drug uptake in ICR mouse kidney at 1.11 MBq, iv after 2 mins postinjection; type: ADME, organism-based; settings: in vivo
[26] = test system: Kidney; assay: Drug uptake in ICR mouse kidney at 1.11 MBq, iv after 30 mins postinjection; type: ADME, organism-based; settings: in vivo, 0.5 h
[27] = test system: Kidney; assay: Drug uptake in ICR mouse kidney at 1.11 MBq, iv after 60 mins postinjection; type: ADME, organism-based; settings: in vivo, 1 h
[28] = test system: Kidney; assay: Drug uptake in ICR mouse kidney at 1.11 MBq, iv after 120 mins postinjection; type: ADME, organism-based; settings: in vivo, 2 h
[29] = test system: Muscle tissue; assay: Drug uptake in ICR mouse muscle at 1.11 MBq, iv after 2 mins postinjection; type: ADME, organism-based; settings: in vivo
[30] = test system: Muscle tissue; assay: Drug uptake in ICR mouse muscle at 1.11 MBq, iv after 30 mins postinjection; type: ADME, organism-based; settings: in vivo, 0.5 h
[31] = test system: Muscle tissue; assay: Drug uptake in ICR mouse muscle at 1.11 MBq, iv after 60 mins postinjection; type: ADME, organism-based; settings: in vivo, 1 h
[32] = test system: Muscle tissue; assay: Drug uptake in ICR mouse muscle at 1.11 MBq, iv after 120 mins postinjection; type: ADME, organism-based; settings: in vivo, 2 h
[33] = test system: Femur; assay: Drug uptake in ICR mouse femur at 1.11 MBq, iv after 2 mins postinjection; type: ADME, organism-based; settings: in vivo
[34] = test system: Femur; assay: Drug uptake in ICR mouse femur at 1.11 MBq, iv after 30 mins postinjection; type: ADME, organism-based; settings: in vivo, 0.5 h
[35] = test system: Femur; assay: Drug uptake in ICR mouse femur at 1.11 MBq, iv after 60 mins postinjection; type: ADME, organism-based; settings: in vivo, 1 h
[36] = test system: Femur; assay: Drug uptake in ICR mouse femur at 1.11 MBq, iv after 120 mins postinjection; type: ADME, organism-based; settings: in vivo, 2 h
[37] = test system: Brain; assay: Drug uptake in ICR mouse brain at 1.11 MBq, iv after 2 mins postinjection; type: ADME, organism-based; settings: in vivo
[38] = test system: Brain; assay: Drug uptake in ICR mouse brain at 1.11 MBq, iv after 30 mins postinjection; type: ADME, organism-based; settings: in vivo, 0.5 h
[39] = test system: Brain; assay: Drug uptake in ICR mouse brain at 1.11 MBq, iv after 60 mins postinjection; type: ADME, organism-based; settings: in vivo, 1 h
[40] = test system: Brain; assay: Drug uptake in ICR mouse brain at 1.11 MBq, iv after 120 mins postinjection; type: ADME, organism-based; settings: in vivo, 2 h
[41] = test system: Brain; assay: Ratio of drug uptake in mouse brain after 2 mins to 60 mins; type: ADME, tissue-based; settings: in vivo
[42] = test system: Brain; assay: Ratio of drug uptake in mouse brain after 2 mins to 30 mins; type: ADME, tissue-based; settings: in vivo
[43] = test system: Brain; assay: Drug uptake in mouse brain after 2 mins; type: ADME, tissue-based; settings: in vivo
[44] = Partition coefficient, log P of the compound; type: physicochemical; settings: octanol/water
[45] = test system: Cynomolgus monkey; assay: Drug uptake in cynomolgus monkey brain after 55 mins; type: ADME, organism-based, Macaca fascicularis; settings: in vivo
[46] = test system: Cynomolgus monkey; assay: Drug uptake in cynomolgus monkey brain after 1.5 mins; type: ADME, organism-based, Macaca fascicularis; settings: in vivo, 0.025 h

SMILES: CN(C)c1ccc(-c2nc3ccc([125I])cc3s2)cc1
- Ki [1]: 1.9 nM

SMILES: CNc1ccc(-c2cn3c(n2)sc2cc(OC)ccc23)cc1
- Ki [1]: 3.5 nM

SMILES: COc1ccc2c(c1)sc1nc(-c3ccc(N[11CH3])cc3)cn12
- Ratio [2]: 9.1

SMILES: COc1cc(/C=C/c2ccc(F)cc2)cc(OC)c1
- Ki [3]: 4.95 nM

SMILES: [11CH3]Nc1ccc(-c2nc3ccc(O)cc3s2)cn1
- Ki [1]: 19.7 nM

SMILES: CNc1ccc(-c2cn3c(n2)sc2cc(OCC[18F])ccc23)cc1
- Ratio [2]: 5.6

SMILES: COc1cc(/C=C/c2ccc(OCCC[18F])cc2)cc(OC)c1
- logP [4]: 2.84
- Drug uptake [5]: 2.08 % ID/g
- Drug uptake [6]: 0.98 % ID/g
- Drug uptake [7]: 0.43 % ID/g
- Drug uptake [8]: 0.38 % ID/g
- Drug uptake [9]: 7.22 % ID/g
- Drug uptake [10]: 1.35 % ID/g
- Drug uptake [11]: 0.56 % ID/g
- Drug uptake [12]: 0.61 % ID/g
- Drug uptake [13]: 8.17 % ID/g
- Drug uptake [14]: 1.72 % ID/g
- Drug uptake [15]: 1.08 % ID/g
- Drug uptake [16]: 1.16 % ID/g
- Drug uptake [17]: 14.35 % ID/g
- Drug uptake [18]: 5.99 % ID/g
- Drug uptake [19]: 2.47 % ID/g
- Drug uptake [20]: 4.47 % ID/g
- Drug uptake [21]: 3.15 % ID/g
- Drug uptake [22]: 1.23 % ID/g
- Drug uptake [23]: 0.84 % ID/g
- Drug uptake [24]: 0.97 % ID/g
- Drug uptake [25]: 10.46 % ID/g
- Drug uptake [26]: 2.86 % ID/g
- Drug uptake [27]: 2.76 % ID/g
- Drug uptake [28]: 1.65 % ID/g
- Drug uptake [29]: 3.67 % ID/g
- Drug uptake [30]: 1.27 % ID/g
- Drug uptake [31]: 0.74 % ID/g
- Drug uptake [32]: 1.07 % ID/g
- Drug uptake [33]: 1.88 % ID/g
- Drug uptake [34]: 5.24 % ID/g
- Drug uptake [35]: 9.73 % ID/g
- Drug uptake [36]: 16.15 % ID/g
- Drug uptake [37]: 3.26 % ID/g
- Drug uptake [38]: 2.09 % ID/g
- Drug uptake [39]: 1.13 % ID/g
- Drug uptake [40]: 1 % ID/g
- Ratio [41]: 2.9
- Ratio [42]: 1.6

SMILES: CN(C)c1ccc(/C=C/c2cn(CC[18F])nn2)cc1
- logP [4]: 1.74
- Drug uptake [5]: 3.35 % ID/g
- Drug uptake [6]: 2.16 % ID/g
- Drug uptake [7]: 1.27 % ID/g
- Drug uptake [8]: 0.98 % ID/g
- Drug uptake [9]: 3.8 % ID/g
- Drug uptake [10]: 1.32 % ID/g
- Drug uptake [11]: 0.81 % ID/g
- Drug uptake [12]: 0.71 % ID/g
- Drug uptake [13]: 5.73 % ID/g
- Drug uptake [14]: 1.75 % ID/g
- Drug uptake [15]: 1.04 % ID/g
- Drug uptake [16]: 0.76 % ID/g
- Drug uptake [17]: 12.5 % ID/g
- Drug uptake [18]: 7.59 % ID/g
- Drug uptake [19]: 3.47 % ID/g
- Drug uptake [20]: 3.47 % ID/g
- Drug uptake [21]: 2.36 % ID/g
- Drug uptake [22]: 0.85 % ID/g
- Drug uptake [23]: 0.6 % ID/g
- Drug uptake [24]: 0.49 % ID/g
- Drug uptake [25]: 7.32 % ID/g
- Drug uptake [26]: 7.32 % ID/g
- Drug uptake [27]: 3.7 % ID/g
- Drug uptake [28]: 1.86 % ID/g
- Drug uptake [29]: 2.44 % ID/g
- Drug uptake [30]: 0.74 % ID/g
- Drug uptake [31]: 0.51 % ID/g
- Drug uptake [32]: 0.4 % ID/g
- Drug uptake [33]: 1.49 % ID/g
- Drug uptake [34]: 0.7 % ID/g
- Drug uptake [35]: 0.94 % ID/g
- Drug uptake [36]: 1.54 % ID/g
- Drug uptake [37]: 5.38 % ID/g
- Drug uptake [38]: 0.68 % ID/g
- Drug uptake [39]: 0.52 % ID/g
- Drug uptake [40]: 0.48 % ID/g
- Ratio [41]: 10.3
- Ratio [42]: 7.9

SMILES: COc1cc(/C=C/c2ccc(OCCF)cc2)cc(OC)c1
- Ki [3]: 0.74 nM

SMILES: COc1cc(/C=C/c2ccc(OCCCF)cc2)cc(OC)c1
- Ki [3]: 0.49 nM

SMILES: CN(C)c1ccc(-c2nc3ccc([125I])cc3o2)cc1
- Ki [1]: 0.8 nM

SMILES: CN(C)c1ccc(/C=C/c2cn(CCF)nn2)cc1
- Ki [3]: 12.8 nM

SMILES: Oc1cc(O)cc(/C=C/c2ccc(F)cc2)c1
- Ki [3]: 39.7 nM

SMILES: CN(C)c1ccc(-c2cn3cc([125I])ccc3n2)cc1
- Drug uptake [43]: 2.88 %ID

SMILES: CNc1ccc(/C=C/c2ccc(OCCOCCOCC[18F])cc2)cc1 [FLORBETABEN F18]
- Ki [1]: 2.22 nM
- Drug uptake [43]: 7.77 % ID/g
- Ratio [42]: 4.89
- logP [44]: 2.41

SMILES: CNc1ccc(/C=C/c2ccc(OCCOCCOCC[18F])nc2)cc1 [FLORBETAPIR F 18]
- Ki [1]: 2.87 nM
- Ratio [41]: 3.9
- logP [44]: 2.41

SMILES: CNc1ccc(-c2cc3cc(O)ccc3o2)c([18F])n1 [FLUTAFURANOL F 18]
- Drug uptake [45]: 0.5 %ID
- Drug uptake [46]: 5.2 %ID

SMILES: CNc1ccc(-c2nc3ccc(O)cc3s2)cc1[18F] [FLUTEMETAMOL F 18]
- Ki [1]: 0.74 nM
